From publication PMC8481799, “Lichen Polyphenolic Compounds for the Eradication of Candida albicans Biofilms” (Frontiers in Cellular and Infection Microbiology, 2021)
In brackets after ≈: the same amount, converted by molar mass. Several values for one entry are separate records, joined by “and”; a condition that tells them apart may be missing. Identical values can stand only once. Like-named read-outs stand apart in the source and are kept apart here.

Experiments:
[1] = tested on: C. albicans planktonic yeast; test: Minimal inhibitory concentration, broth microdilution (CLSI M27-A3 adapted); assay type: cell-based, Candida albicans ATCC 28367
Procedure: Stock solutions of lichen compounds were prepared in DMSO at 10 mg/ml and were used for all the experiments performed. Their antifungal minimum inhibitory concentrations (MICs) were determined by a broth microdilution method (CLSI reference M27-A3 micromethod adapted protocol) as previously described ([Millot et al., 2017]). Briefly, an inoculum of C. albicans ATCC® 28367™ (American Type Culture Collection) adjusted to 0.5 Mac Farland absorbance was diluted 1:1,000 in RPMI-MOPS. A volume of this yeast culture was added to an equivalent volume of compound solution at several concentrations (100 to 0.048 μg/ml final) in 96-well microtiter plates. Controls as untreated yeasts (negative control), yeasts treated with 2% DMSO and yeasts treated with fluconazole (positive control) were included. After 24 and 48 h incubation at 37°C without shaking, the MICs were determined. All tests were performed in duplicate in at least two separate experiments.

[2] = tested on: Candida parapsilosis biofilm; set-up: method as in Kvasnickova et al., 2015; settings: at 300 μg/ml, 24-h biofilm; ref Kvasnickova et al., 2015; cited from earlier work
[3] = tested on: Candida albicans preformed 24-h-old biofilm; test: Anti-biofilm test (XTT) on preformed 24-h-old biofilm; assay type: cell-based, Candida albicans ATCC 28367
Procedure: (§1) The anti-maturation and/or anti-biofilm activities of lichen compounds were assessed as previously described ([Millot et al., 2017]). Briefly, C. albicans (ATCC® 28367™) cultures were prepared at a final concentration of 1 × 10^7 cells/ml in yeast nitrogen base medium (Difco, Detroit, MI), supplemented with 50 mM glucose (Sigma, St Louis, MO) (YNB-Glc) from a preculture incubated overnight at 37°C without shaking.
(§2) A total of 200 µl of yeast culture was added to each well of untreated 96-well tissue culture plates. The plates were then incubated at 37°C for 2 h for the anti-maturation test and for 24 h for the anti-biofilm test. After aspiration of spent media and free-floating microorganisms, 250 μl per well of YNB-Glucose and 50 μl lichen compound samples obtained by serial twofold dilutions of each stock solution over the final range 200 to 0.097 μg/ml or 200 to 6.25 μg/ml were added to wells. Controls were also present: untreated yeasts (negative control) and yeasts treated with 2% DMSO. After 24 and/or 48 h of incubation at 37°C followed by aspiration of spent media and free-floating microorganisms, the wells were washed with phosphate-buffered saline (PBS) and observed under an inverted optical microscope (IX51® inverted microscope, Olympus). Biofilms were quantified using a metabolic assay based on the reduction of a tetrazolium salt (XTT) and absorbance measurements at 492 nm (microplate reader LP400; Sanofi Diagnostics Pasteur) ([Cocuaud, 2005]; [Dalleau et al., 2008]). The percent inhibition was determined from the absorbance values compared to the mean absorbance value obtained for untreated wells (100%).
(§3) Concentrations of lichen products inhibiting 50% of biofilms were determined for each tested sample by constructing a dose–response curve and selecting the closest tested concentration value above or equal to 50% inhibition. All anti-maturation and anti-biofilm tests were performed at least in triplicate in at least two separate experiments. The lichen compounds with MMIC50 or/and MBIC50 less than 100 μg/ml were considered as potentially useful.
(§4) Anti-maturation and anti-biofilm tests were performed with C. albicans ATCC® 28367™, as previously described, in 96-well microplates with evernic acid alone, cyclodextrin alone, and evernic acid included in cyclodextrin at over 50 to 1.5 µM final range of evernic acid (serial twofold dilution).

[4] = tested on: 24-h Candida orthopsilosis biofilms; set-up: method as in Pires et al., 2012; settings: 24-h biofilm, vs untreated controls; ref Pires et al., 2012; cited from earlier work
Candida krusei biofilm = tested on: Candida krusei biofilm; set-up: method as in Kvasnickova et al., 2015; settings: at 300 μg/ml, 24-h biofilm; ref Kvasnickova et al., 2015; cited from earlier work
[5] = tested on: 24-h C. parapsilosis biofilms; set-up: method as in Pires et al., 2012; settings: 24-h biofilm, vs untreated controls; ref Pires et al., 2012; cited from earlier work
[6] = tested on: C. albicans (ATCC: 90028) biofilm; set-up: method as in Nithyanand et al., 2015b; settings: at 100 µg/ml, added before the adhesion step, ring test; ref Nithyanand et al., 2015b; cited from earlier work
C. albicans = tested on: C. albicans; set-up: method as in Nithyanand et al., 2015b; settings: at 100 µg/ml; ref Nithyanand et al., 2015b; cited from earlier work
48-h C. albicans biofilm = tested on: 48-h C. albicans biofilm; set-up: method as in Peralta et al., 2016; settings: 4 μg/ml, ref Peralta et al., 2016, cited from earlier work
[7] = tested on: Candida albicans biofilms on the maturation phase; test: Anti-maturation test (XTT), compounds added after 2 h adherence; assay type: cell-based, Candida albicans ATCC 28367; settings: for IC50: Candida albicans
Procedure: as §1, §2, §3, §4

[8] = set-up: method as in Shcherbakova et al. (2021); settings: ref Shcherbakova et al. (2021); cited from earlier work
red blood cells = test: Hemolysis test; assay type: cell-based; settings: at 100 µg/ml, 1 h
Procedure: Then, 480 µl of each dilution was added to 20 µl of healthy red blood cells (Poitiers University Hospital, Hematology Department) in microtubes (final hematocrit = 4%). Some microtubes were reserved for controls: untreated red blood cells (negative control), cells treated with sterile distilled water (positive control = 100% hemolysis), and cells treated with 1% DMSO. After 1 h of incubation at 37°C, the tubes were centrifuged for 10 s at 14,000 g (A14 centrifuge Jouan) twice, and 200 µl of each supernatant was transferred into 96-well microtiter plates for colorimetric measurements at 450 nm (microplate reader LP400; Sanofi Diagnostics Pasteur) in order to determine the hemolysis percentages of each compound ([Evans et al., 2013]). All tests were performed in duplicate (at least two separate experiments).

[9] = tested on: HeLa human epithelial cervix cells; test: Growth inhibition of HeLa cells (MTT, 72 h); assay type: cell-based; settings: for Growth inhibition of HeLa cells (% inhibition): 72 h
Procedure: HeLa human epithelial cervix cells were grown as monolayers at 37°C in a 5% CO2–95% air humidified atmosphere in RPMI supplemented with 10% FBS and […] gentamycin and streptomycin. Cells (2,000 cells/well) were seeded into each well of 96-well plates. […] The final DMSO concentration was less than 1% and tested as a negative control. Cell viability at 72 h was studied using the MTT assay. Then, 5 µl of MTT (10 mg/ml) was added to each well, and the plates were incubated for 4 h. The medium was then removed by aspiration, and 200 µl DMSO was added to each well. Proliferation was determined spectrophotometrically by measuring the absorbance at 540 nm. The percent of growth inhibition (%GI) was calculated as follows: %GI = [(DO (ʎ540 nm) control - DO (ʎ540 nm) treated)/DO (ʎ540 nm) control] * 100. All experiments were performed in duplicate with at least two replicate experiments.

[10] = Candida albicans, 24 h, 24 h of treatment, 24-h-old biofilm, read-out: Anti-biofilm activity MBIC50
[11] = Candida albicans, 48 h, 48 h of treatment, 24-h-old biofilm, read-out: Anti-biofilm activity MBIC50
[12] = 24 h of treatment, read-out: Anti-maturation activity MMIC50
[13] = 48 h of treatment, read-out: Anti-maturation activity MMIC50

Compound	IC50 [3, 10] [µg/mL]	IC50 [3, 11] [µg/mL]	Hemolytic activity (%) (red blood cells)	IC50 [7, 12]	IC50 [7, 13]	also measured
CC(=O)C1=C(O)C=C2Oc3c(C(C)=O)c(O)c(C)c(O)c3C2(C)C1=O (stereo in doubt) [Compound 11, (+)-usnic acid]	–	–	–	–	–	MIC [1]: > 100 µg/mL; Anti-biofilm properties [2]: no anti-biofilm properties; Anti-biofilm activity ([3]; 24-h-old biofilm, in words): no anti-biofilm activity; IC50 ([3]; Candida albicans, 24 h, read-out: Anti-biofilm activity MBIC50): > 200 µg/mL; IC50 ([3]; Candida albicans, 48 h, read-out: Anti-biofilm activity MBIC50): > 200 µg/mL; IC50 ([3]; Candida albicans, read-out: MBIC50): ≥ 100 µg/mL; Concentration inducing 80% inhibition of cell growth [4]: 31.2 µg/mL; Anti-biofilm properties (Candida krusei biofilm): no anti-biofilm properties; Concentration inducing 80% inhibition of cell growth [5]: 62.5 µg/mL; Biofilm inhibition [6]: 65%; Antifungal activity (C. albicans): no antifungal activity; Biofilm biomass (48-h C. albicans biofilm; control 18.39): 4.91 μm^3/μm^2; Inhibition of biofilm biomass (48-h C. albicans biofilm): 73.3%; Reduction of biofilm thickness (48-h C. albicans biofilm): 76.8%; IC50 ([7]; 24 h, read-out: Anti-maturation activity MMIC50): > 200 µg/mL; IC50 ([7]; 48 h, read-out: Anti-maturation activity MMIC50): > 200 µg/mL; Anti-maturation activity ([7]; at 200 µg/ml): not active
COc1cc(C)c(C(=O)Oc2cc(C)c(C(=O)O)c(O)c2)c(O)c1 [Compound 1, Evernic acid]	200	≤ 12.5	0	100 µg/mL (≈ 301 µM)	6.25 µg/mL and 18 µM	Predicted cytotoxicity risks [8]: absence of mutagenic, tumorigenic, reproductive, and irritant effects; Anti-biofilm activity MBIC50 ([3]; 48 h of treatment, 24-h-old biofilm): 12.5 µg/mL; IC50 ([3]; 48 h of treatment, 24-h-old biofilm, listed as Evernic acid, read-out: Anti-biofilm activity MBIC50): < 12.5 µM; IC50 ([3]; 48 h of treatment, 24-h-old biofilm, listed as evernic acid, read-out: Anti-biofilm activity MBIC50): 37 µM; IC50 ([3]; 48 h of treatment, 24-h-old biofilm, read-out: Anti-biofilm activity MBIC50): 37.5 µM; IC50 ([3]; Candida albicans, 48 h, cyclodextrin experiment, 1.5 to 50 µM, 48 h of contact, read-out: Concentration giving 50% inhibition of the biofilm): 12.5 µM; Hemolytic activity (%) (red blood cells; listed as Evernic acid): no hemolytic activity; Hemolytic activity (%) (red blood cells; listed as evernic acid): no effect at all; Growth inhibition of HeLa cells (% inhibition) ([9]; at 6.125 µg/ml): 22.2 ± 2.8%; Growth inhibition of HeLa cells (% inhibition) ([9]; at 100 µg/ml): more than 70%; Inhibition of HeLa cell growth ([9]; at the lowest tested / minimal active concentration (12.5 or 6.25 µg/ml)): 22%
COc1cc(C)c(C(=O)Oc2cc(C)c(C(=O)O)c(O)c2C)c(O)c1C(=O)O [Compound 2, Squamatic acid]	> 200	> 200	0.4 ± 0.01	50 µg/mL and 128 µM	12.5 µg/mL and 32 µM	Growth inhibition of HeLa cells (% inhibition) ([9]; at 12.5 µg/ml): 14.8 ± 1.6%
COc1cc(C)c(C(=O)Oc2c(C)c(C(=O)O)c(O)c(C=O)c2O)c(O)c1C(=O)O [Compound 3, thamnolic acid]	> 200	> 200	4.0 ± 0.02	50 µg/mL and 120 µM	12.5 µg/mL and 30 µM	Growth inhibition of HeLa cells (% inhibition) ([9]; at 12.5 µg/ml): 11.0 ± 0.9%
COC(=O)c1c(C)cc(OC(=O)c2c(C)cc(O)c(C=O)c2O)c(C)c1O [Compound 4, atranorin]	> 200	> 200	0	> 200 µg/mL	> 200 µg/mL	Growth inhibition of HeLa cells (% inhibition) ([9]; at 100 µg/ml): 84.5 ± 6.8%; IC50 ([7]; incubation time not stated, read-out: MMIC50 (anti-maturation IC50)): ≥ 100 µg/mL
Cc1cc(OC(=O)c2c(C)cc(OC(=O)c3c(C)cc(O)cc3O)cc2O)cc(O)c1C(=O)O [Compound 5, gyrophoric acid]	> 200	> 200	0.5 ± 0.27	> 200 µg/mL	100 µg/mL (≈ 213 µM)	Growth inhibition of HeLa cells (% inhibition) ([9]; at 100 µg/ml): 70.0 ± 2.3%
Cc1cc(O)c(C=O)c2c1C(=O)Oc1c(C)c(O)c3c(c1O2)C(O)OC3=O (stereo not shown) [Compound 6, norstictic acid]	> 200	> 200	–	> 200 µg/mL	> 200 µg/mL	–
Cc1cc(O)c(C=O)c2c1C(=O)Oc1c(CO)c(O)c3c(c1O2)[C@@H](O)OC3=O [Compound 7, salazinic acid]	> 200	> 200	–	–	–	–
COc1cc(C)c2c(c1C=O)Oc1c(c(C)c(O)c3c1C(O)OC3=O)OC2=O (stereo not shown) [Compound 8, stictic acid]	> 200	> 200	–	200 µg/mL (≈ 518 µM)	200 µg/mL (≈ 518 µM)	–
CCCCCC(=O)Cc1cc(O)cc2c1C(=O)Oc1cc(O)c(C(=O)O)c(CCCCC)c1O2 [Compound 9, physodic acid]	> 200	> 200	–	> 200 µg/mL	> 200 µg/mL	–
CCCCCC(=O)Cc1cc(O)c(O)c2c1C(=O)Oc1cc(O)c(C(=O)O)c(CCCCC)c1O2 [Compound 10, 3-hydroxyphysodic acid]	> 200	100	–	> 200 µg/mL	100 µg/mL (≈ 206 µM)	–
